Structures can show the parent of a compound that is named as a salt. Where two headings read alike, the source gives them in different places.
Columns and labels:
[1] = molecular target: T1, recombinant human MAO-A (Homo sapiens, UniProt P21397); assay: Inhibition of MAO-A activity, colorimetric; format: biochemical; conditions: for Specificity for SSAO vs. MAO-A: ratio IC50 MAO-A to IC50 SSAO
T1 construct: purchased BD Biosciences (MA, USA)
T1 sequence (P21397 1-527): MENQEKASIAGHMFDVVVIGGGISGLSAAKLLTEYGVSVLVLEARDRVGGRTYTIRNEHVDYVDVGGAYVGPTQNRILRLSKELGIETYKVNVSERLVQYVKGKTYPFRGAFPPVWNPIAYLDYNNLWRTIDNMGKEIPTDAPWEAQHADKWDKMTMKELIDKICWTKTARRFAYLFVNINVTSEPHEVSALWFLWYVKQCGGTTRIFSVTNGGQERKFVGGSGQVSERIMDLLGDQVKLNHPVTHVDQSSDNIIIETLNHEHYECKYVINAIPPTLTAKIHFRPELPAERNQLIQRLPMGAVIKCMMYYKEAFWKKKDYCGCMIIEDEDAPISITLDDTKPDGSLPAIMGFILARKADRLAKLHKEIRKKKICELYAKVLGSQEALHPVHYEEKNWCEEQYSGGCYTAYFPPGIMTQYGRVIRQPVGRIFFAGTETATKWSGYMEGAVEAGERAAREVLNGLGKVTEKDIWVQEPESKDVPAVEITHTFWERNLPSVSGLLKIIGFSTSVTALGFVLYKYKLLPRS
Procedure: (§1) The specificity of the different SSAO inhibitors was tested by determining their ability to inhibit MAO-A and MAO-B activities in vitro. Recombinant human MAO-A and human MAO-B enzymes were obtained from BD Biosciences (MA, USA). […] A pre-determined amount of inhibitor diluted in 0.2 M potassium phosphate buffer, pH 7.6, was added to each well, if required. […] Controls lacked inhibitor. The following agents were then added to a final reaction volume of 200 μl in 0.2 M potassium phosphate buffer, pH 7.6: 0.04 mg/ml of MAO-A or 0.07 mg/ml MAO-B enzyme, 15 μl of 10 mM tyramine substrate (for MAO-A), or 15 μl 100 mM benzylamine substrate (for MAO-B), and 50 μl of freshly made chromogenic solution (as above). The plates were incubated for 60 min at 37° C. The increase in absorbance, reflecting MAO activity, was measured at 490 nm using microplate spectrophotometer (Power Wave 40, Bio-Tek Inst.). Inhibition was presented as percent inhibition compared to control after correcting for background absorbance and IC50 values calculated using GraphPad Prism software.

[2] = molecular target: T2, recombinant human MAO-B (Homo sapiens, UniProt P27338); assay: Inhibition of MAO-B activity, colorimetric; format: biochemical; conditions: for Specificity for SSAO vs. MAO-B: ratio IC50 MAO-B to IC50 SSAO
T2 construct: purchased BD Biosciences (MA, USA)
T2 sequence (P27338 1-520): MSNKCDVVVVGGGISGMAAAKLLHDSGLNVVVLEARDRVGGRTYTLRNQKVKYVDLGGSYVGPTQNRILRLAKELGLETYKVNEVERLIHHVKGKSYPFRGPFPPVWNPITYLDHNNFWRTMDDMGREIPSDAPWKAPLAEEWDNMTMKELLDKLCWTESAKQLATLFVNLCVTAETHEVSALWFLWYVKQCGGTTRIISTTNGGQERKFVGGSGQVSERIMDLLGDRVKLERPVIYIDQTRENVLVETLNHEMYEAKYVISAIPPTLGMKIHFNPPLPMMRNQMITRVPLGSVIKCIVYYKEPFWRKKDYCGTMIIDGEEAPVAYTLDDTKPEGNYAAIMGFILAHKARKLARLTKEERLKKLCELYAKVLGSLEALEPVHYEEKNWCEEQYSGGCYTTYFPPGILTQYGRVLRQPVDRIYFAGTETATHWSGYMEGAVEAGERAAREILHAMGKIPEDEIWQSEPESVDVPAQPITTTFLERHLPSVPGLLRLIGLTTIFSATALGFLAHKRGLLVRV
Procedure: as §1

[3] = molecular target: T3, SSAO (bovine plasma amine oxidase, PAO) (Bos taurus, UniProt Q29437); assay: In vitro inhibition of SSAO activity, coupled colorimetric method; format: biochemical
T3 construct: Bovine plasma amine oxidase (PAO) was purchased from Worthington Biochemical; purchased Worthington Biochemical (Lakewood, N.J.)
T3 sequence (Q29437 17-762): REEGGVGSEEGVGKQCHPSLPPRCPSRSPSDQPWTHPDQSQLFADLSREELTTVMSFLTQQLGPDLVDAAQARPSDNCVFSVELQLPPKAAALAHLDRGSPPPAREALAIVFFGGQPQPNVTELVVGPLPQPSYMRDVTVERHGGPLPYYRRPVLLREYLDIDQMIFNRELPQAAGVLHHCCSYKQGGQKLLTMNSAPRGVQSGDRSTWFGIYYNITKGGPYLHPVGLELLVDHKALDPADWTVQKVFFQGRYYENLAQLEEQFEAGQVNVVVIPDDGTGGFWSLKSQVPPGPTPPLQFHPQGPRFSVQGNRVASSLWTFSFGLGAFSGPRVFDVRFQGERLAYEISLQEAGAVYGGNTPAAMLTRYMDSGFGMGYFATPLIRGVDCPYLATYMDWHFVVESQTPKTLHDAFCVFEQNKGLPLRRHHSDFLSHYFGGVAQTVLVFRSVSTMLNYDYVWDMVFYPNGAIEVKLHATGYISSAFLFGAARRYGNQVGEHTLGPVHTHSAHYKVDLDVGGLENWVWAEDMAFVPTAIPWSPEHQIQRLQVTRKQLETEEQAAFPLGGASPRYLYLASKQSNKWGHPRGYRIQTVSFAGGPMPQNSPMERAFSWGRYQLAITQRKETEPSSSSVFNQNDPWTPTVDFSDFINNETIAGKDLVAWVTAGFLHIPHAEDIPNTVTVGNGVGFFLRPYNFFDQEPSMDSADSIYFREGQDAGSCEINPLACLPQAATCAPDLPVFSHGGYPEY
Procedure: SSAO activity was measured using the coupled colorimetric method essentially as described for monoamine oxidase and related enzymes (Holt A. et al. (1997) Anal. Biochem. 244:384). Bovine plasma amine oxidase (PAO) was purchased from Worthington Biochemical (Lakewood, N.J.) and used as a source of SSAO for activity measurements. The SSAO assay was performed in 96 well microtitre plates as follows. A pre-determined amount of inhibitor diluted in 0.2 M potassium phosphate buffer, pH 7.6, was added to each well, if required. The amount of inhibitor varied in each assay but was generally at a final concentration of between 10 nM and 10 μM. Controls lacked inhibitor. In order to study the effects of potential inhibitors 50 μl of inhibitor solution were preincubated for 30 min at 37° C. with 0.4 mU of PAO in an a total volume of 130 μl of 0.2 M potassium phosphate buffer pH 7.6. Assays were then started by addition of 20 μl 10 mM benzylamine substrate and incubated for 20 min at 37° C. The following reagents were then added to a final reaction volume of 200 μl, 50 μl of freshly made chromogenic solution containing […] vanillic acid (Sigma # V-2250), […] 4-aminoantipyrine (Sigma # A-4328) and 12 U/ml horseradish peroxidase (Sigma # P-8250) in order to cause a change of 0.5 OD A490 per hour. This was within the linear response range of the assay. The plates were incubated for 1 hr at 37° C. and the increase in absorbance, reflecting SSAO activity, was measured at 490 nm using a microplate spectrophotometer (Power Wave 40, Bio-Tek Inst.). Inhibition was presented as percent inhibition compared to control after correcting for background absorbance and IC50 values calculated using GraphPad Prism software.

[4] = system: carrageenan-induced paw edema in Sprague Dawley rats; assay: Carrageenan-induced rat paw edema; format: in vivo; conditions: 3 mg/kg oral 1 hour prior to carrageenan
Procedure: Female Sprague Dawley rats were used and compounds of the invention were injected i.p. at 100 mg/kg 15 minutes prior to carrageenan exposure. The control group was injected with an equal volume of vehicle (PBS). Edema in the paws was induced as previously described by injecting 50 μl of a 0.5% solution of carrageenan (Type IV Lambda, Sigma) in saline with a 27-G needle s.c. in the right foot pat. (See Whiteley P. E. and Dalrymple S. A. (1998) Models of inflammation: carrageenan-induced paw edema in the rat, in Current Protocols in Pharmacology. Enna S J, Williams M, Ferkany J W, Kenaki T, Porsolt R E and Sullivan J P, eds., pp 5.4.1-5.4.3, John Wiley & Sons, New York) The size of the tested foot of each animal was measured volumetrically, before induction of edema, and at 60, 120, and 180 min after carrageenan induction.
Briefly, SSAO inhibitors (30 mg/kg), indomethacin (3 mg/kg) and PBS were administered orally to rats 1 hour after carrageenan injections.
To investigate further the role of SSAO inhibition in the inflammatory response, studies were carried out to assess the effect of SSAO inhibition on prostaglandin E2 (PGE2) levels. Animals were divided into four therapeutic groups of eight rats each. […] The fourth group received 3 mg/kg of dexamethasone, i.p. 1 hour before paw inflammation. Three hours after carrageenan injection, rats were asphyxiated with CO2 and their hind paws removed. The paws were lacerated with a scalpel, suspended off the bottom of a polypropylene 1.5 ml tube with a micropipette tip and centrifuged to express the inflammatory fluid. The volume collected from each paw was determined and the fluid was analyzed by ELISA for PGE2 production using a commercial kit (R&D Systems, Minneapolis, Minn.) according to the manufacturer's instructions. […] Data were analyzed with GraphPad Prism software (San Diego, Calif.) by Dunnett's test following analysis of variance.

| SMILES | IC50 [1] | Specificity for SSAO vs. MAO-A [1] | IC50 [2] | Specificity for SSAO vs. MAO-B [2] | IC50 [3] | IC50 ([1]; tyramine substrate, no pre-incubation, read-out: MAO-A Inhibitory Activity IC50) | IC50 ([3]; 30 min preincubation, benzylamine substrate, read-out: SSAO Inhibitory Activity IC50) | melting point | PGE2 levels in paw exudate [4] |
| --- | --- | --- | --- | --- | --- | --- | --- | --- | --- |
| C=C(CON)c1ccccc1 [Example 1, O-(2-phenyl-allyl)-hydroxylamine Hydrochloride] | 900 µM | 31,000 | 125 µM | 4,300 | 0.029 µM | – | – | – | – |
| C=C(CNN)c1ccc(Cl)cc1.Cl [Example 3, N-[2-(4′-chlorophenyl)-allyl]-hydrazine Hydrochloride] | – | 20 | 24.5 µM | 490 | – | 1 µM | 0.05 µM | – | – |
| C=C(CON)c1ccccc1 (as salt: hydrochloride) [Example 1, O-(2-phenyl-allyl)-hydroxylamine Hydrochloride] | – | – | – | – | – | – | – | 101 to 102 °C | – |
| C=C(CNNC)c1ccc(F)cc1.Cl [Example 7, N-[2-(4′-fluorophenyl)-allyl]-N′-methylhydrazine Hydrochloride] | 620 µM | 230 | 210 µM | 80 | 2.61 µM | – | – | 128 to 129 °C | – |
| COc1ccc2c(c1)c(CC(=O)O)c(C)n2C(=O)c1ccc(Cl)cc1 [indomethacin, reference compound] | – | – | – | – | – | – | – | – | greater impact |
| C=C(CN(C)N)c1ccc(Cl)cc1.Cl [Example 4, N-[2-(4′-chlor-phenyl)-allyl]-N-methyl-hydrazine Hydrochloride] | 260 µM | 400 | 175 µM | 269 | 0.65 µM | – | – | – | – |
| C=C(CN(C)NC)c1ccc(Cl)cc1.Cl [Example 6, N-[2-(4′-Chlorophenyl)-allyl]-N,N′-dimethylhydrazine Hydrochloride] | 300 µM | 64 | 2.8 µM | 0.60 | 4.7 µM | – | – | 108 to 110 °C | – |
| COc1ccc(C(O)CON)cc1OC (centres unmarked) [Example 12, 2-Aminooxy-1-(3′,4′-dimethoxyphenyl)-ethanol Hydrochloride] | 3.6 µM | 400,000 | 8200 µM | 90,000 | 0.09 µM | – | – | – | – |
| NOCC(O)c1ccccc1 (centres unmarked) [Example 11, 2-Aminooxyl-1-phenyl-ethanol Hydrochloride] | 250 µM | 5000 | 450 µM | 9000 | 0.05 µM | – | – | – | – |
| C=C(C)CNN.Cl [Example 9, (2-methyl-allyl)hydrazine Hydrochloride] | 350 µM | 6,300 | 20 µM | 360 | 0.055 µM | – | – | – | – |
| C=C(CN(N)CC)c1ccc(Cl)cc1.Cl [Example 5, N-[2-(4′-Chlorophenyl)-allyl]-N-ethyl-hydrazine Hydrochloride] | 690 µM | 726 | 155 µM | 163 | 0.95 µM | – | – | 150 to 151 °C | – |

From US20050096360A1, “Inhibitors of semicarbazide-sensitive amine oxidase (SSAO) and VAP-1 mediated adhesion useful for treatment of diseases” (priority 2003, published 2005)
